Measured values: patent US8618289B2 (Ambit Biosciences Corporation, priority 2008, dated 2013)
Where two headings read alike, the source gives them in different places.

Key:
[1] = system: 290 distinct kinases tested excluding mutant variants (321 in the larger panel)
[2] = system: MEK1 phosphorylation in the A375 human melanoma cell line; experiment: cells; conditions: A-375, read-out: pMEK IC50
[3] = molecular target: T1, RAF kinases (Homo sapiens, UniProt P15056, V600E); conditions: read-out: BRAF V600E Kd; BRAF V600E
[4] = molecular target: T2, RAF kinases (Homo sapiens, UniProt P15056); experiment: biochemical
[5] = molecular target: T3, RAF kinases (Homo sapiens, UniProt P04049); experiment: biochemical
[6] = system: A375 cells; experiment: cells; conditions: Homo sapiens, A-375, read-out: A375 Viability EC50
[7] = molecular target: T2, RAF kinases; conditions: read-out: BRAF WT Kd; BRAF WT
[8] = molecular target: T3, RAF kinases; conditions: read-out: RAF1 Kd; RAF1
[9] = molecular target: T1, RAF kinases; experiment: biochemical
[10] = no asterisk: panel of 290 distinct kinases
[11] = asterisk: panel of 321 distinct kinases

T1 sequence (P15056 whole entry V600E): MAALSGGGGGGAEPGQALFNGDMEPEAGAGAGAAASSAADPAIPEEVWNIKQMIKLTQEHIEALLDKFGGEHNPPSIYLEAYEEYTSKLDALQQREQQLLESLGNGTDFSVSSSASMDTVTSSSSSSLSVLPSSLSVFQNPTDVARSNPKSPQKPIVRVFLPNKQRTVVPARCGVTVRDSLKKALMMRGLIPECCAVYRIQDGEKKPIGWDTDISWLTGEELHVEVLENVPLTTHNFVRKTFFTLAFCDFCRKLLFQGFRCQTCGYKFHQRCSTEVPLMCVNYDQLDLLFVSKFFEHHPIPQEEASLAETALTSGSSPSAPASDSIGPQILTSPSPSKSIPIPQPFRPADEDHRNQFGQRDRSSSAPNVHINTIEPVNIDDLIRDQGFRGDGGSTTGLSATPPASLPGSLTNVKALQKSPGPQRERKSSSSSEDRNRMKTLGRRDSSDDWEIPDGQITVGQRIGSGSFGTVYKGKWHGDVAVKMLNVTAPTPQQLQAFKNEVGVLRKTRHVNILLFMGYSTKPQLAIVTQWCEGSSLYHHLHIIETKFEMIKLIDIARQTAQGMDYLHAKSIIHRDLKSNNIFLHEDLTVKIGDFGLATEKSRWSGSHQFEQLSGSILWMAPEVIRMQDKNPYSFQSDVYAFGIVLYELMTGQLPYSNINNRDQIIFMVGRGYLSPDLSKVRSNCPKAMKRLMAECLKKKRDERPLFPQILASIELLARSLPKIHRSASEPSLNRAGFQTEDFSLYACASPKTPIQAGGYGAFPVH
T3 sequence (P04049 whole entry): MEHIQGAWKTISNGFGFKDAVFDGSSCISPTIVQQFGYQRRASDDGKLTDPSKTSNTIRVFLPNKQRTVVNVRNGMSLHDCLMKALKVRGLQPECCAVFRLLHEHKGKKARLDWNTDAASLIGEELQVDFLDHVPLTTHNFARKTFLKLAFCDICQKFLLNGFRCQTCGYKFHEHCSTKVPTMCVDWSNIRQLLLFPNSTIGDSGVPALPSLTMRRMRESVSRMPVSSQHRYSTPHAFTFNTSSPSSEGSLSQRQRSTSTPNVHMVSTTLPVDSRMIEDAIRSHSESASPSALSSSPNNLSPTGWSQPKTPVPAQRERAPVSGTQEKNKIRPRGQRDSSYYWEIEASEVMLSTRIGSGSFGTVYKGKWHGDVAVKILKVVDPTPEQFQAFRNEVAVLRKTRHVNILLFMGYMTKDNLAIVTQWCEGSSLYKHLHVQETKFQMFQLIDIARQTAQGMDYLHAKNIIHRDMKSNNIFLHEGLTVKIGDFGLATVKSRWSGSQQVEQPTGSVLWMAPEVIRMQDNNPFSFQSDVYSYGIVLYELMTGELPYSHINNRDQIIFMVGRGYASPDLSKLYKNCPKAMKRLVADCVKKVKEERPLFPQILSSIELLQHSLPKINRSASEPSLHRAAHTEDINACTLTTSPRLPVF
T2 sequence (P15056 whole entry): as the sequence (P15056 whole entry V600E) above, with E600V counted along it

Row | Compound | S35 [1, 10] | IC50 [2] | Kd [3] | Kd [4] | Kd [5] | S35 [1, 11] | EC50 [6] | Kd [7] | Kd [8] | Kd [9]
1 | COc1cc(OC2CCOCC2)c2c(Sc3cccc(NC(=O)Nc4cc(C(C)(C)C)on4)c3)ncnc2c1 | C (0.20 < C ≦ 0.40) |  |  |  |  |  |  |  |  | 
2 | COc1cc2ncnc(Oc3cccc(NC(=O)Nc4cc(C(C)(C)C)nn4-c4ccncc4)c3)c2cc1OC [Ex336, 1-(3-tert-butyl-1-(pyridin-4-yl)-1H-pyrazol-5-yl)-3-(3-(6,7-dimethoxyquinazolin-4-yloxy)phenyl)urea] | D (D > 0.40) | < 0.25 µM | < 0.25 µM | 0.5 to 1 µM | 0.5 to 1 µM |  |  |  |  | 
3 | COc1cc2ncnc(Sc3cccc(NC(=O)Nc4cc(C(F)(F)F)n(-c5ccccc5)n4)c3)c2cc1OC [Ex 170, 1-[3-(6,7-dimethoxyquinazolin-4-ylthio)phenyl]-3-[1-phenyl-5-(trifluoromethyl)-1H-pyrazol-3-yl]urea] |  | 0.25 to 0.5 µM |  |  |  | B* (0.10 < B ≦ 0.20) | 0.25 to 0.5 µM |  |  | 
4 | COc1cc2ncnc(Sc3cccc(NC(=O)Nc4cc(C(F)(F)F)n(C)n4)c3)c2cc1OC [Ex 194, 1-[3-(6,7-dimethoxyquinazolin-4-ylthio)phenyl]-3-[1-methyl-5-(trifluoromethyl)-1H-pyrazol-3-yl]urea] |  | 0.25 to 0.5 µM |  |  |  | C* (0.20 < C ≦ 0.40) | 0.5 to 1 µM |  |  | 
5 | COCCOc1cc2ncnc(Oc3cccc(NC(=O)Nc4cc(C5CCOCC5)no4)c3)c2cc1OC [Ex 216, 1-(3-(6-methoxy-7-(2-methoxyethoxy)quinazolin-4-yloxy)phenyl)-3-(3-(tetrahydro-2H-pyran-4-yl)isoxazol-5-yl)urea] |  | > 1 µM |  |  |  |  | > 1 µM | > 1 µM | > 1 µM | 0.25 to 0.5 µM
6 | COCCOc1cc2ncnc(Oc3cccc(NC(=O)Nc4cc(C(F)(F)F)n(-c5ccccc5)n4)c3)c2cc1OC [Ex 225, 1-{3-[6-methoxy-7-(2-methoxyethoxy)quinazolin-4-yloxy]phenyl}-3-[1-phenyl-5-(trifluoromethyl)-1H-pyrazol-3-yl]urea] |  | 0.5 to 1 µM |  |  |  |  | > 1 µM | > 1 µM | > 1 µM | 0.25 to 0.5 µM
7 | COCCOc1cc2ncnc(Oc3cccc(NC(=O)Nc4cc(C(F)(F)F)nn4-c4ccc(F)cc4)c3)c2cc1OC [Ex 226, 1-[1-(4-fluorophenyl)-3-(trifluoromethyl)-1H-pyrazol-5-yl]-3-{3-[6-methoxy-7-(2-methoxyethoxy)quinazolin-4-yloxy]phenyl}urea] |  | 0.25 to 0.5 µM |  |  |  |  | > 1 µM | > 1 µM | > 1 µM | 0.5 to 1 µM
8 | COCCOc1cc2ncnc(Oc3cccc(NC(=O)Nc4cc(C(F)(F)F)nn4-c4ccc(C)cc4)c3)c2cc1OC [Ex 227, 1-{3-[6-methoxy-7-(2-methoxyethoxy)quinazolin-4-yloxy]phenyl}-3-[1-p-tolyl-3-(trifluoromethyl)-1H-pyrazol-5-yl]urea] |  | 0.25 to 0.5 µM |  |  |  |  | 0.25 to 0.5 µM | > 1 µM | > 1 µM | 0.5 to 1 µM
9 | COCCOc1cc2ncnc(Oc3cccc(NC(=O)Nc4cc(C(C)(CF)CF)nn4-c4ccccc4)c3)c2cc1OC [Ex 228, 1-[3-(1,3-difluoro-2-methylpropan-2-yl)-1-phenyl-1H-pyrazol-5-yl]-3-{3-[6-methoxy-7-(2-methoxyethoxy)quinazolin-4-yloxy]phenyl}urea] |  | < 0.25 µM |  |  |  |  | > 1 µM | > 1 µM | > 1 µM | 0.5 to 1 µM
10 | COCCOc1cc2ncnc(Sc3cccc(NC(=O)Nc4ccc(C(F)(F)F)c(F)c4)c3)c2cc1OC [Ex 231, 1-(3-fluoro-4-(trifluoromethyl)phenyl)-3-(3-(6-methoxy-7-(2-methoxyethoxy)quinazolin-4-ylthio)phenyl)urea] |  | > 1 µM |  |  |  |  | > 1 µM | > 1 µM | > 1 µM | 0.5 to 1 µM
11 | COCCOc1cc2ncnc(Sc3cccc(NC(=O)Nc4ccc(C(F)(F)F)c(OC)c4)c3)c2cc1OC [Ex 233, 1-(3-methoxy-4-(trifluoromethyl)phenyl)-3-(3-(6-methoxy-7-(2-methoxyethoxy)quinazolin-4-ylthio)phenyl)urea] |  | > 1 µM |  |  |  |  | > 1 µM | > 1 µM | > 1 µM | 0.5 to 1 µM
12 | CCOC(=O)Cn1nc(C(C)(C)C)cc1NC(=O)Nc1cccc(Sc2ncnc3cc(OCCOC)c(OC)cc23)c1 [Ex 237, ethyl 2-[3-tert-butyl-5-(3-{3-[6-methoxy-7-(2-methoxyethoxy)quinazolin-4-ylthio]phenyl}ureido)-1H-pyrazol-1-yl]acetate] |  | 0.5 to 1 µM |  |  |  |  | > 1 µM | > 1 µM | > 1 µM | 0.5 to 1 µM
13 | COc1cc2ncnc(Oc3cc(NC(=O)Nc4cc(C(F)(F)F)nn4-c4ccccc4)c(F)cc3F)c2cc1OC [Ex 271, 1-(5-(6,7-dimethoxyquinazolin-4-yloxy)-2,4-difluorophenyl)-3-(1-phenyl-3-(trifluoromethyl)-1H-pyrazol-5-yl)urea] |  | < 0.25 µM |  |  |  |  | 0.25 to 0.5 µM | > 1 µM | > 1 µM | 0.25 to 0.5 µM
14 | COCCOc1cc2ncnc(Sc3cccc(NC(=O)Nc4cc(C(C)(C)C)nn4-c4ccc(C)cc4C)c3)c2cc1OC [Ex 283, 1-(3-tert-butyl-1-(2,4-dimethylphenyl)-1H-pyrazol-5-yl)-3-(3-(6-methoxy-7-(2-methoxyethoxy)quinazolin-4-ylthio)phenyl)urea] |  | < 0.25 µM |  |  |  |  | > 1 µM | > 1 µM | > 1 µM | 0.5 to 1 µM
15 | COc1cc2ncnc(Oc3ccc(Cl)c(NC(=O)Nc4cc(C(F)(F)F)nn4-c4ccccc4)c3)c2cc1OC [Ex 300, 1-(2-chloro-5-(6,7-dimethoxyquinazolin-4-yloxy)phenyl)-3-(1-phenyl-3-(trifluoromethyl)-1H-pyrazol-5-yl)urea] |  | 0.25 to 0.5 µM |  |  |  |  | > 1 µM | > 1 µM | > 1 µM | 0.5 to 1 µM
16 | COc1cc2ncnc(Oc3cccc(NC(=O)Nc4cc(C(C)(C)CN5CCOCC5)on4)c3)c2cc1OC [Ex 302, 1-(3-(6,7-dimethoxyquinazolin-4-yloxy)phenyl)-3-(5-(2-methyl-1-morpholinopropan-2-yl)isoxazol-3-yl)urea] |  | > 1 µM |  |  |  |  | > 1 µM | > 1 µM | > 1 µM | 0.25 to 0.5 µM
17 | COc1cc2ncnc(Oc3cccc(NC(=O)Nc4cc(C(F)(F)C(F)(F)F)nn4-c4ccccc4)c3)c2cc1OC [Ex 304, 1-(3-(6,7-dimethoxyquinazolin-4-yloxy)phenyl)-3-(3-(perfluoroethyl)-1-phenyl-1H-pyrazol-5-yl)urea] |  | 0.25 to 0.5 µM |  |  |  |  | < 0.25 µM | > 1 µM | > 1 µM | 0.25 to 0.5 µM
18 | COc1cc2ncnc(Sc3cccc(NC(=O)Nc4cc(C(C)(C)C)nn4-c4ccccc4F)c3)c2cc1OC [Ex 371, 1-(3-tert-butyl-1-(2-fluorophenyl)-1H-pyrazol-5-yl)-3-(3-(6,7-dimethoxyquinazolin-4-ylthio)phenyl)urea] |  | < 0.25 µM |  |  |  |  |  | > 1 µM | > 1 µM | 0.25 to 0.5 µM
19 | COc1cc2ncnc(Oc3cccc(NC(=O)Nc4cc(C(C)(C)C)nn4-c4ccc(C(F)(F)F)cc4)c3)c2cc1OC [Ex 373, 1-(3-tert-butyl-1-(4-(trifluoromethyl)phenyl)-1H-pyrazol-5-yl)-3-(3-(6,7-dimethoxyquinazolin-4-yloxy)phenyl)urea] |  | < 0.25 µM |  |  |  |  |  | > 1 µM | > 1 µM | 0.5 to 1 µM
20 | COc1cc2ncnc(Sc3cccc(NC(=O)Nc4cc(C(C)(C)C)nn4-c4ccccc4C(F)(F)F)c3)c2cc1OC [Ex 375, 1-(3-tert-butyl-1-(2-(trifluoromethyl)phenyl)-1H-pyrazol-5-yl)-3-(3-(6,7-dimethoxyquinazolin-4-ylthio)phenyl)urea] |  | < 0.25 µM |  |  |  |  |  | > 1 µM | > 1 µM | 0.5 to 1 µM
21 | COc1cc2ncnc(Oc3cccc(NC(=O)Nc4cc(C(C)(C)C)nn4-c4ccccc4C(F)(F)F)c3)c2cc1OC [Ex 376, 1-(3-tert-butyl-1-(2-(trifluoromethyl)phenyl)-1H-pyrazol-5-yl)-3-(3-(6,7-dimethoxyquinazolin-4-yloxy)phenyl)urea] |  | < 0.25 µM |  |  |  |  |  | > 1 µM | > 1 µM | 0.5 to 1 µM
22 | COc1cc2ncnc(Oc3cccc(NC(=O)Nc4cc(C(C)(C)C)nn4-c4cccc(C(F)(F)F)c4)c3)c2cc1OC [Ex 379, 1-(3-tert-butyl-1-(3-(trifluoromethyl)phenyl)-1H-pyrazol-5-yl)-3-(3-(6,7-dimethoxyquinazolin-4-yloxy)phenyl)urea] |  | < 0.25 µM |  |  |  |  |  | > 1 µM | > 1 µM | 0.25 to 0.5 µM
23 | COc1cc2ncnc(Sc3cccc(NC(=O)Nc4cc(C(C)(C)C)nn4-c4cccc(C(F)(F)F)c4)c3)c2cc1OC [Ex 380, 1-(3-tert-butyl-1-(3-(trifluoromethyl)phenyl)-1H-pyrazol-5-yl)-3-(3-(6,7-dimethoxyquinazolin-4-ylthio)phenyl) urea] |  | < 0.25 µM |  |  |  |  |  | > 1 µM | > 1 µM | 0.25 to 0.5 µM
24 | COc1cc2ncnc(Sc3cccc(NC(=O)Nc4cc(C5(C(F)(F)F)CC5)nn4-c4ccccc4)c3)c2cc1OC [Ex 383, 1-(3-(6,7-dimethoxyquinazolin-4-ylthio)phenyl)-3-(1-phenyl-3-(1-(trifluoromethyl)cyclopropyl)-1H-pyrazol-5-yl)urea] |  | < 0.25 µM |  |  |  |  |  | > 1 µM | > 1 µM | 0.25 to 0.5 µM
